The text below walks through data of US10385019B2, “Inhibitors of EGFR and methods of use thereof” (Dana-Farber Cancer Institute, Inc., priority 2015, dated 2019).

SMILES strings stand for the structures.

The target in this experiment is EGFR T790M/L858R Ba/F3 cell line (Homo sapiens, UniProt P00533, T790M/L858R, cells depend on it). As to the kind of experiment: Ba/F3 cell proliferation model. The settings on record: combined with cetuximab (% cetuximab, 1.0 μM drug concentration with 1.0 μg/mL cetuximab). The experiment is classed as cell-based, murine. An excerpt: The selectivity between wild-type EGFR and EGFR containing one or more mutations as described herein can also be measured using cellular proliferation assays where cell proliferation is dependent on kinase activity. For example, murine Ba/F3 cells transfected with a suitable version of wild-type EGFR (such as VIII; containing a WT EGFR kinase domain), or Ba/F3 cells transfected with L858R/T790M, Del/T790M/L718Q, L858R/T790M/L718Q, L858R/T790M/C797S, Del/T790M/C797S, L858R/T790M/I941R, or Exon 19 deletion/T790M can be used.
EGFR T790M/L858R Ba/F3 cell line, sequence (P00533 whole entry T790M/L858R, the tested form may be a part): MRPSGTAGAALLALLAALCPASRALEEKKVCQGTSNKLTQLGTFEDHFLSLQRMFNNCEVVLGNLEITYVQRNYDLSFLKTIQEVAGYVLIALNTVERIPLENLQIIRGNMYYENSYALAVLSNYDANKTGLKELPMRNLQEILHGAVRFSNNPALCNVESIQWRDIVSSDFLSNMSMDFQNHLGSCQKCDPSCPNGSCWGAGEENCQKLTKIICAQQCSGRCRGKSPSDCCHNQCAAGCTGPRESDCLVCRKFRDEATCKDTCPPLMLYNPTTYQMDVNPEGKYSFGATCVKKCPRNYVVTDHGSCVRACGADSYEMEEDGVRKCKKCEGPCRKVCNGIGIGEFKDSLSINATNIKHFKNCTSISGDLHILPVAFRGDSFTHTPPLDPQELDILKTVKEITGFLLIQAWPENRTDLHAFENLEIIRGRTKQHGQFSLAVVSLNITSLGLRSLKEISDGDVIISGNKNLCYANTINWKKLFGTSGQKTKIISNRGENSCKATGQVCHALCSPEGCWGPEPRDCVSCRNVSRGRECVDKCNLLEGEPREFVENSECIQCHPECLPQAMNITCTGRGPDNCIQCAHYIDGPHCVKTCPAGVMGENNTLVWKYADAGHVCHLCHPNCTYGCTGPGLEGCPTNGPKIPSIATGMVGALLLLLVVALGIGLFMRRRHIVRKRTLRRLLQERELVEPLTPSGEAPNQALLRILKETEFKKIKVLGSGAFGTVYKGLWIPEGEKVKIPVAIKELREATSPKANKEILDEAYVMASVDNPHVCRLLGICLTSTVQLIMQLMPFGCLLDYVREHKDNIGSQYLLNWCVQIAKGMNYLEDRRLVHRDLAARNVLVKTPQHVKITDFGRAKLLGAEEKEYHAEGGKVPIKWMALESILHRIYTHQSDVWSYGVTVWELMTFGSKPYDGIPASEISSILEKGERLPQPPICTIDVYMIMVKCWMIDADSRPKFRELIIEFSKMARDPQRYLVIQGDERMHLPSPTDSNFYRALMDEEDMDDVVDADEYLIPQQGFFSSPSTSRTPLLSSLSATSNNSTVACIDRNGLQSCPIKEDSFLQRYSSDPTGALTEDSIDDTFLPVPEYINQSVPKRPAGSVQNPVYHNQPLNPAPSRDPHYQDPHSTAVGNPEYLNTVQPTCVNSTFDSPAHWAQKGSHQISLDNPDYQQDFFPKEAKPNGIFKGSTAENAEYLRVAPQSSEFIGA
Cell lines are plated in media. The compounds of the present disclosure are then serially diluted and transferred to the cells. Cell viability is measured via a luminescent readout. Data is analyzed by non-linear regression curve-fitting. […]
The EGFR mutant L858R, Del E746_A750, L858R/T790M, DelE746_A750/T790M, L858R/T790M/C797S and Del/T790M/C797S Ba/F3 cells have been previously described (Zhou, W., Ercan, D., Chen, L., Yun, C. H., Li, D., Capelletti, M., Cortot, A. B., Chirieac, L., Iacob, R. E., Padera, R., et al. “Novel mutant-selective EGFR kinase inhibitors against EGFR T790M,” Nature 462, (2009), 1070-1074). All cell lines were maintained in RPMI 1640 (Cellgro; Mediatech Inc., Herndon, Calif.) supplemented with 10% FBS 100 units/mL penicillin, 100 units/mL streptomycin, and 2 mM glutamine. L858R cells were maintained in ACL-4 media (Invitrogen, Carlsbad, Calif.) supplemented with 5% FBS, 100 units/mL penicillin, 100 units/mL streptomycin, and 2 mM glutamine. The EGFR I941R mutation was introduced via site directed mutagenesis using the Quick Change Site-Directed Mutagenesis kit (Stratagene; La Jolla, Calif.) according to the manufacturer's instructions. All constructs were confirmed by DNA sequencing. The constructs were shuttled into the retroviral vector JP 1540 using the BD Creator™ System (BD Biosciences). Ba/F3 cells were infected with retrovirus and according to standard protocols, as described previously (Zhou et al, Nature 2009). Stable clones were obtained by selection in puromycin (2 μg/ml).
Growth and inhibition of growth was assessed by MTS assay and was performed according to previously established methods (Zhou et al., Nature 2009). The MTS assay is a colorimetric method for determining the number of viable cells that is based on the bioreduction of MTS by cells to a formazan product that is soluble in cell culture medium and can be detected spectrophotometrically. Ba/F3 cells of different EGFR genotypes were exposed to treatment for 72 hours and the number of cells used per experiment determined empirically and has been previously established (Zhou et al., Nature 2009). All experimental points were set up in six wells and all experiments were repeated at least three times. […] The curves were fitted using a non-linear regression model with a sigmoidal dose response.
Inhibition data of an EGFR T790M/L858R Ba/F3 cell line.
`O=C(Nc1cc(C2CC2)n[nH]1)[C@@H](c1ccccc1)N1Cc2ccccc2C1=O` [Compound I-26, (R)-N-(3-cyclopropyl-1H-pyrazol-5-yl)-2-(1-oxoisoindolin-2-yl)-2-phenylacetamide]: the “Activity (% inhibition)” value is on record as “A (a % inhibition of about 75%)”.
Next, `O=C(Nc1cnc(Br)cn1)[C@@H](c1ccccc1)N1Cc2ccccc2C1=O` [Compound I-27, (R)-N-(5-bromopyrazin-2-yl)-2-(1-oxoisoindolin-2-yl)-2-phenylacetamide]: “A (a % inhibition of about 75%)”; `O=C(Nc1cc(Br)ccn1)[C@@H](c1ccccc1)N1Cc2ccccc2C1=O` [Compound I-28, (R)-N-(4-bromopyridin-2-yl)-2-(1-oxoisoindolin-2-yl)-2-phenylacetamide]: “A (a % inhibition of about 75%)”; `O=C(Nc1cc(Br)ccn1)[C@H](c1ccccc1)N1Cc2ccccc2C1=O` [Compound I-29, (S)-N-(4-bromopyridin-2-yl)-2-(1-oxoisoindolin-2-yl)-2-phenylacetamide]: “A (a % inhibition of about 75%)”.
Next, `O=C(Nc1cc(C(F)(F)F)n[nH]1)[C@@H](c1ccccc1)N1Cc2ccccc2C1=O` [Compound I-30, (R)-2-(1-oxoisoindolin-2-yl)-2-phenyl-N-(3-(trifluoromethyl)-1H-pyrazol-5-yl)acetamide]: “A (a % inhibition of about 75%)”; `O=C(Nc1ccccn1)[C@@H](c1ccccc1)N1Cc2ccccc2C1=O` [Compound I-31, (R)-2-(1-oxoisoindolin-2-yl)-2-phenyl-N-(pyridin-2-yl) acetamide]: “A (a % inhibition of about 75%)”.
The result for `O=C(Nc1nc2cccnc2s1)[C@@H](c1ccccc1)N1Cc2ccccc2C1=O` [Compound I-32, (R)-2-(1-oxoisoindolin-2-yl)-2-phenyl-N-(thiazolo [5,4-b]pyridin-2-yl)acetamide] reads “A (a % inhibition of about 75%)”; that for `O=C(Nc1ncnc2[nH]ncc12)[C@@H](c1ccccc1)N1Cc2ccccc2C1=O` [Compound I-33, (R)-2-(1-oxoisoindolin-2-yl)-2-phenyl-N-(1H-pyrazolo[3,4-d]pyrimidin-4-yl)acetamide], “A (a % inhibition of about 75%)”.
`O=C(Nc1ncc[nH]1)[C@@H](c1ccccc1)N1Cc2ccccc2C1=O` [Compound I-34, (R)-N-(1H-imidazol-2-yl)-2-(1-oxoisoindolin-2-yl)-2-phenylacetamide]: the “Activity (% inhibition)” value is reported as “A (a % inhibition of about 75%)”.
With `O=C(Nc1ncc[nH]1)[C@H](c1ccccc1)N1Cc2ccccc2C1=O` [Compound I-35, (S)-N-(1H-imidazol-2-yl)-2-(1-oxoisoindolin-2-yl)-2-phenylacetamide], the “Activity (% inhibition)” value was “A (a % inhibition of about 75%)”.
With `O=C(Nc1nc(Br)cs1)[C@@H](c1ccccc1)N1Cc2ccccc2C1=O` [Compound I-36, (R)-N-(4-bromothiazol-2-yl)-2-(1-oxoisoindolin-2-yl)-2-phenylacetamide], the “Activity (% inhibition)” value is “A (a % inhibition of about 75%)”.
For the compound `O=C(Nc1nc(-c2ccncc2)cs1)[C@@H](c1ccccc1)N1Cc2ccccc2C1=O` [Compound I-37, (R)-2-(1-oxoisoindolin-2-yl)-2-phenyl-N-(4-(pyridin-4-yl)thiazol-2-yl)acetamide], the “Activity (% inhibition)” value was “A (a % inhibition of about 75%)”.
Next, `Nc1cccc([C@H](C(=O)Nc2nccs2)N2Cc3ccccc3C2=O)c1` [Compound I-38, (R)-2-(3-aminophenyl)-2-(1-oxoisoindolin-2-yl)-N-(thiazol-2-yl)acetamide]: “A (a % inhibition of about 75%)”.
The result for `O=C(Nc1nccs1)[C@@H](Cc1ccccc1)N1Cc2ccccc2C1=O` [Compound I-39, (R)-2-(1-oxoisoindolin-2-yl)-3-phenyl-N-(thiazol-2-yl)propanamide] reads “A (a % inhibition of about 75%)”.
The result for `O=C(Nc1ncc(Br)s1)[C@@H](c1ccccc1)N1Cc2ccccc2C1=O` [Compound I-40, (R)-N-(5-bromothiazol-2-yl)-2-(1-oxoisoindolin-2-yl)-2-phenylacetamide] reads “A (a % inhibition of about 75%)”.
`O=C(Nc1nncs1)[C@@H](c1ccccc1)N1Cc2ccccc2C1=O` [Compound I-41, (R)-2-(1-oxoisoindolin-2-yl)-2-phenyl-N-(1,3,4-thiadiazol-2-yl)acetamide]: the “Activity (% inhibition)” value was “A (a % inhibition of about 75%)”.
Next, `O=C(Nc1nncs1)[C@H](c1ccccc1)N1Cc2ccccc2C1=O` [Compound I-42, (S)-2-(1-oxoisoindolin-2-yl)-2-phenyl-N-(1,3,4-thiadiazol-2-yl)acetamide]: “A (a % inhibition of about 75%)”; `O=C(Nc1nc(CCCN2CCOCC2)cs1)[C@@H](c1ccccc1)N1Cc2ccccc2C1=O` [Compound I-43, (R)-N-(4-(3-morpholinopropyl)thiazol-2-yl)-2-(1-oxoisoindolin-2-yl)-2-phenylacetamide]: “A (a % inhibition of about 75%)”.
The result for `O=C(Nc1ncc(CCCN2CCOCC2)s1)[C@@H](c1ccccc1)N1Cc2ccccc2C1=O` [Compound I-44, (R)-N-(5-(3-morpholinopropyl)thiazol-2-yl)-2-(1-oxoisoindolin-2-yl)-2-phenylacetamide] reads “A (a % inhibition of about 75%)”.
Next, `O=C(Nc1nccs1)[C@H](Cc1ccccc1)N1Cc2ccccc2C1=O` [Compound I-45, (S)-2-(1-oxoisoindolin-2-yl)-3-phenyl-N-(thiazol-2-yl) propanamide]: “A (a % inhibition of about 75%)”; `O=C(Nc1nccs1)[C@@H](c1ccccc1)N1Cc2ccc(-c3cccs3)cc2C1=O` [Compound I-46, (R)-2-(1-oxo-6-(thiophen-2-yl)isoindolin-2-yl)-2-phenyl-N-(thiazol-2-yl)acetamide]: “B (a % inhibition of between about 50% to about 75%)”; `O=C(Nc1nccs1)[C@@H](c1ccccc1)N1Cc2ccc(-c3ccsc3)cc2C1=O` [Compound I-47, (R)-2-(1-oxo-6-(thiophen-3-yl)isoindolin-2-yl)-2-phenyl-N-(thiazol-2-yl)acetamide]: “B (a % inhibition of between about 50% to about 75%)”.
For `CCOC(=O)c1csc(NC(=O)[C@H](Cc2ccccc2)N2Cc3ccccc3C2=O)n1` [Compound I-48, ethyl (S)-2-(2-(1-oxoisoindolin-2-yl)-3-phenylpropanamido) thiazole-4-carboxylate], the “Activity (% inhibition)” value is “A (a % inhibition of about 75%)”.
Take `O=C(Nc1ncc(Br)s1)[C@H](Cc1ccccc1)N1Cc2ccccc2C1=O` [Compound I-49, (S)-N-(5-bromothiazol-2-yl)-2-(1-oxoisoindolin-2-yl)-3-phenylpropanamide]: the “Activity (% inhibition)” value is “A (a % inhibition of about 75%)”.
The result for `O=C(Nc1nc(Br)cs1)[C@@H](Cc1ccccc1)N1Cc2ccccc2C1=O` [Compound I-50, (R)-N-(4-bromothiazol-2-yl)-2-(1-oxoisoindolin-2-yl)-3-phenylpropanamide] reads “A (a % inhibition of about 75%)”; that for `O=C(Nc1ccccc1)[C@@H](c1ccccc1)N1Cc2ccccc2C1=O` [Compound I-51, (R)-2-(1-oxoisoindolin-2-yl)-N,2-diphenylacetamide], “A (a % inhibition of about 75%)”.
Next, `O=C(Nc1ccccc1Cl)[C@@H](c1ccccc1)N1Cc2ccccc2C1=O` [Compound I-52, (R)-N-(2-chlorophenyl)-2-(1-oxoisoindolin-2-yl)-2-phenylacetamide]: “A (a % inhibition of about 75%)”; `O=C(Nc1cc(F)ccc1F)[C@@H](c1ccccc1)N1Cc2ccccc2C1=O` [Compound I-53, (R)-N-(2,5-difluorophenyl)-2-(1-oxoisoindolin-2-yl)-2-phenylacetamide]: “A (a % inhibition of about 75%)”.
